Entries after “also recorded” stand apart in the source; their conditions may differ.
Experiments:
primary human PBMCs = test: Cytokine induction in primary human PBMCs by small molecule TLR7/8 agonists (Luminex); assay type: cell-based; conditions: for potency to activate human PBMCs (IL6, IL1b, MIP1b, TNFα): compared with S18a, FIG. 29; for potency and activity of cytokine induction (IL6, TNFα, MCP1, IP10): ranking
Experimental: This example covers dose dependent human immune cell activation by small molecule TLR7/8 agonists. Primary human PBMCs were isolated from peripheral whole blood from human donors and were subjected to treatment with increasing concentrations of the agonists diluted in PBS. Cell culture supernatants were harvested 24 h after treatment and analyzed for induction of cytokines via multiplex ELISAs (Luminex).
Several small molecule TLR7/8 agonists were assessed for their ability to activate human immune cells in a dose dependent manner. Primary human PBMCs were isolated from peripheral whole blood from human donors and were subjected to treatment with increasing concentrations of the agonists diluted in PBS. 24 h after treatment cell culture supernatants were harvested and analyzed for induction of cytokines via multiplex ELISAs (Luminex).

CT26 tumors = assay type: in vivo; conditions: targeted ADC, intraperitoneal, every 7 days, 3 doses; for mice surviving at the end of the study: 6 mice per group
Text: This example covers in vivo assessments of anti-tumor activity of ADCs with TLR7/8 agonists. An in vivo syngeneic system was used to assess the ability of the ADCs having TLR ⅞ agonists as the payload to induce immune responses and drive an anti-tumor immune response using a subcutaneous, heterotopic mouse colon carcinoma model (a CT26 system). Female Balb/c mice were implanted with 1×10^5 CT26 cells sub-cutaneously in the flank on day 0. When mean tumor size of 100 mm^3 (measured using the formula: Volume (mm^3)=0.5*Length*Width^2 where length is the longer dimension) was reached, the mice were randomized into treatment groups of 6 mice per group. Animals were then treated intraperitoneally with the indicated treatment every 7 days, for 3 doses total. Stock concentrations of the ADCs were diluted to the appropriate concentration and injected into animals in 100 μL volumes. Tumor length and width and mouse weights were measured throughout the study and tumor volume was calculated using the formula above. Animals were followed until tumor volume reached 1000 mm^3, when animals were then euthanized.

Renca tumors = test: Renca kidney carcinoma model in Balb/c mice; assay type: in vivo, mouse; conditions: targeted or non-targeted conjugates, N1 vs C4 linkage, different linkers, with or without PEG
Experimental: The difference in anti-tumor activity of the S18a and S18b conjugates was also assessed in the Renca kidney model. In this model, mice bearing Renca tumors were treated q7dx3 when tumors reached ˜100 mm^3 as indicated, and followed for mean group tumor growth (FIG. 14, top) and survival (FIG. 14, bottom) over time.
This example covers cancer treatment with EphA2 targeted TLR agonists. […] Balb/c mice were implanted with Renca tumor cells and when cells reached 100 mm^3 they were treated Q7dx3 treatments with 2.4 mg/kg of the indicated IDC, either non targeting isotype or an EphA2 targeting mAb.

## CCCCc1nc2c(N)nc3cc(C(=O)OC)ccc3c2n1Cc1ccc(CN(CC)CC)cc1 [S83a]
Primary human PBMCs; free drug
  potency to activate human PBMCs (IL6, IL1b, MIP1b, TNFα): slightly enhanced potency
Primary human PBMCs; free drug, FIG. 30
  potency and activity of cytokine induction (IL6, TNFα, MCP1, IP10): highest maximal cytokine and potency to induce cytokine of all compounds tested

## CCCCc1nc2c(N)nc3cc(C(=O)OC)ccc3c2n1Cc1ccc(CN2CCOCC2)cc1 [S81a]
Primary human PBMCs; free drug, FIG. 30
  maximal level of IL6, MCP1 and IP10: same maximal level of IL6, MCP1 and IP10 as the other compounds
  maximum level of IL10, IL1b or TNFα: not able to reach the same maximum level
  potency and activity of cytokine induction (IL6, TNFα, MCP1, IP10): greater activity than compound S82a
Primary human PBMCs; inferred from the cytokine profile
  TLR7 vs TLR8 binding profile: TLR7 vs TLR8 skewed binding profile

## CCCCc1nc2c(N)nc3cc(C(=O)O)ccc3c2n1Cc1ccc(C[N+](C)(C)Cc2ccc(O[C@H]3O[C@H](CO)[C@@H](O)[C@H](O)[C@@H]3O)c(NC(=O)CCNC(=O)[C@H](CCCCNC(=O)CCOCCOCCOCCOCCOCCOCCOCCOCCOCCOCCOCCOC)NC(=O)CCN3C(=O)C=CC3=O)c2)cc1 [Compound 9, N-(4-((4-amino-2-butyl-7-carboxy-1H-imidazo[4,5-c]quinolin-1-yl)methyl)benzyl)-1-(3-((S)-44-(3-(2,5-dioxo-2,5-dihydro-1H-pyrrol-1-yl)propanamido)-38,45-dioxo-2,5,8,11,14,17,20,23,26,29,32,35-dodecaoxa-39,46-diazanonatetracontan-49-amido)-4-(((2R,3 S,4 S, 5 S,6R)-3,4,5-trihydroxy-6-(hydroxymethyl)tetrahydro-2H-pyran-2-yl)oxy)phenyl)-N,N-dimethylmethanaminium]
CT26 tumors
  tumor growth delay and survival: potent tumor growth delay and a long-term overall survival benefit
Renca tumors
  anti-tumor activity (tumor volume, survival): greatest potency; also recorded: superior potency

## CCCCc1nc2c(N)nc3cc(C(=O)O)ccc3c2n1CC(C)O (centres unmarked) [S5b]
Primary human PBMCs; free drug, FIG. 3
  IFNα, IL1β, MIP1β, TNFα induction, C7 carboxylic acid vs parent C7 methyl ester: markedly lower potency and activity than its corresponding parent methyl ester compound

## CCCCc1nc2c(N)nc3cc(C(=O)O)ccc3c2[nH]1 [S82b]
Primary human PBMCs; free drug, FIG. 30
  potency and activity of cytokine induction (IL6, TNFα, MCP1, IP10): greater activity than compound S84a

## CCCCc1nc2c(N)nc3cc(C(=O)O)ccc3c2n1Cc1ccc(C[N+](C)(C)Cc2ccc(O[C@H]3O[C@H](CO)[C@@H](O)[C@H](O)[C@@H]3O)c(NC(=O)CCNC(=O)CCN3C(=O)C=CC3=O)c2)cc1 [Compound 14, N-(4-((4-amino-2-butyl-7-carboxy-1H-imidazo[4,5-c]quinolin-1-yl)methyl)benzyl)-1-(3-(3-(3-(2,5-dioxo-2,5-dihydro-1H-pyrrol-1-yl)propanamido)propanamido)-4-(((2R,3S,4S,5S,6R)-3,4,5-trihydroxy-6-(hydroxymethyl)tetrahydro-2H-pyran-2-yl)oxy)phenyl)-N,N-dimethylmethanaminium]
Renca tumors
  anti-tumor activity (tumor volume, survival): greatest potency

## CCCCc1nc2c(N)nc3cc(C(=O)OC)ccc3c2n1CCCCCNC(=O)OCc1ccc(O[C@H]2O[C@H](CO)[C@@H](O)[C@H](O)[C@@H]2O)c(NC(=O)CCNC(=O)[C@H](CCCCNC(=O)CCOCCOCCOCCOCCOCCOCCOCCOCCOCCOCCOCCOC)NC(=O)CCN2C(=O)C=CC2=O)c1 [Compound 7, Methyl 4-amino-2-butyl-1-(5-((((3-((S)-44-(3-(2,5-dioxo-2,5-dihydro-1H-pyrrol-1-yl)propanamido)-38,45-dioxo-2,5,8,11,14,17,20,23,26,29,32,35-dodecaoxa-39,46-diazanonatetracontan-49-amido)-4-(((2R,3 S,4 S, 5 S,6R)-3,4,5-trihydroxy-6-(hydroxymethyl)tetrahydro-2H-pyran-2-yl)oxy)benzyl)oxy)carbonyl)amino)pentyl)-1H-imidazo[4,5-c]quinoline-7-carboxylate]
CT26 tumors
  tumor growth delay and survival: some tumor growth delay over the untreated group
  mice surviving at the end of the study: no animals ultimately survived

## CCCCc1nc2c(N)nc3cc(C(=O)OC)ccc3c2n1Cc1ccc(CN)cc1 [S8a]
Primary human PBMCs; single donor, 24 h, FIG. 1
  concentration eliciting cytokine responses (IFNg, IL1β, MIP1β, TNFα): < 0.1 µM

## CCCCc1nc2c(N)nc3cc(C(=O)OC)ccc3c2n1Cc1ccc(CN2CCCCC2)cc1 [S85a]
Primary human PBMCs; free drug
  potency to activate human PBMCs (IL6, IL1b, MIP1b, TNFα): slightly decreased potency

## CCCCc1nc2c(N)nc3cc(C(=O)O)ccc3c2n1CCCCCNC(=O)OCc1ccc(O[C@H]2O[C@H](CO)[C@@H](O)[C@H](O)[C@@H]2O)c(NC(=O)CCNC(=O)[C@H](CCCCNC(=O)CCOCCOCCOCCOCCOCCOCCOCCOCCOCCOCCOCCOC)NC(=O)CCN2C(=O)C=CC2=O)c1 [Compound 8, 4-amino-2-butyl-1-(5-((((3-((S)-44-(3-(2,5-dioxo-2,5-dihydro-1H-pyrrol-1-yl)propanamido)-38,45-dioxo-2,5,8,11,14,17,20,23,26,29,32,35-dodecaoxa-39,46-diazanonatetracontan-49-amido)-4-(((2R,3 S,4 S, 5 S,6R)-3,4,5-trihydroxy-6-(hydroxymethyl)tetrahydro-2H-pyran-2-yl)oxy)benzyl)oxy)carbonyl)amino)pentyl)-1H-imidazo[4,5-c]quinoline-7-carboxylic acid]
CT26 tumors
  tumor growth delay and survival: greatly increased tumor growth delay and survival

## CCCCc1nc2c(N)nc3cc(C(=O)OC)ccc3c2n1Cc1ccc(CN2CCCC2)cc1 [S65a]
Primary human PBMCs; free drug, FIG. 30
  potency to induce MCP1 and IP10: enhanced potency to induce MCP1 and IP10 compared to compounds S18a
  potency and activity of cytokine induction (IL6, TNFα, MCP1, IP10): other two most potent compounds

## CCCCc1nc2c(N)nc3cc(C(=O)OC)ccc3c2n1Cc1ccc(CNC(=O)OCc2ccc(O[C@H]3O[C@H](CO)[C@@H](O)[C@H](O)[C@@H]3O)c(NC(=O)CCNC(=O)[C@H](CCCCNC(=O)CCOCCOCCOCCOCCOCCOCCOCCOCCOCCOCCOCCOC)NC(=O)CCN3C(=O)C=CC3=O)c2)cc1 [Compound 4, methyl 4-amino-2-butyl-1-(4-(((((3-((S)-44-(3-(2,5-dioxo-2,5-dihydro-1H-pyrrol-1-yl)propanamido)-38,45-dioxo-2,5,8,11,14,17,20,23,26,29,32,35-dodecaoxa-39,46-diazanonatetracontan-49-amido)-4-(((2R,3 S,4 S, 5 S,6R)-3,4,5-trihydroxy-6-(hydroxymethyl)tetrahydro-2H-pyran-2-yl)oxy)benzyl)oxy)carbonyl)amino)methyl)benzyl)-1H-imidazo[4,5-c]quinoline-7-carboxylate]
CT26 tumors
  tumor growth delay and survival: some tumor growth delay and survival benefit
  mice surviving at the end of the study: ⅙
